Experimental data taken from patent US11143585B2, “Photoelectrical device for concentration detection, method for concentration detection thereof and method for testing an antibiotic susceptibility on bacteria” (priority 2018, dated 2021).

Tests used:
[1] = test system: oxacillin-resistant Staphylococcus aureus (ORSA); assay: Antibiotic effectiveness test with the photoelectrical device, fluid sample containing ORSA and oxacillin; assay type: cell-based
Experimental: (§1) FIG. 3A is an electric current-voltage curve obtained by the photoelectrical device of the present invention for detecting an effectiveness of an antibiotic on bacteria. In the method for testing the effectiveness of an antibiotic on bacteria of the present invention, firstly, a fluid sample containing bacteria and an antibiotic is prepared, wherein the bacterial concentration of the fluid sample is between 10^4 and 10^5 CFU/ml. Use FIG. 3A as an example, the fluid sample to be detected contains an antibiotic: oxacillin, and bacteria: oxacillin-resistant Staphylococcus aureus (ORSA, hereinafter as ORSA for short). There is also another control sample used as a control group containing oxacillin and oxacillin-susceptible Staphylococcus aureus (OSSA, hereinafter as OSSA for short). In FIG. 3A, curve B3 is the background information and is drawn by detecting a sterile fluid sample. Curve OS31 is drawn by detecting the control sample containing OSSA and oxacillin, and curve OR31 is drawn by detecting a fluid sample containing ORSA and oxacillin.
Both the above fluid sample and the control sample are added with oxacillin of a concentration of about 4 μg/ml in the tryptic soy broth (TSB) to incubate OSSA and ORSA respectively, and both of them respectively contain OSSA and ORSA with a bacterial concentration of 6×10^4 CFU/ml. After preparing the above fluid sample and the control sample, the bacteria (ORSA) in the fluid sample and the bacteria (OSSA) in the control sample are incubated, wherein the time for incubating the bacteria can be more than 3 hours, for example, 4 hours. […]
(§2) FIG. 3B is a diagram illustrating the relationship between the change rate of electric current and the incubation time measured on the photoelectric device 100 after being incubated for different periods of time based on FIG. 3A, wherein the vertical axis represents the change rate of electric current and its definition is the same as the above mathematical formula (1), while the horizontal axis represents the incubation time (also referred to as incubation period). […]

[2] = test system: oxacillin-susceptible Staphylococcus aureus (OSSA); assay: Antibiotic effectiveness test with the photoelectrical device, control sample containing OSSA and oxacillin; assay type: cell-based; settings: oxacillin about 4 μg/ml in TSB, initial 6×10^4 CFU/ml
Experimental: as §1, with “Curve OS31 is drawn by detecting the control sample containing OSSA and oxacillin, and curve OR31 is drawn by detecting a fluid sample containing ORSA and oxacillin.” left out
as §2

For Cc1onc(-c2ccccc2)c1C(=O)N[C@@H]1C(=O)N2[C@@H]1SC(C)(C)[C@@H]2C(=O)O [oxacillin], the “change rate of electric current of the ORSA fluid sample” value ([1]; oxacillin about 4 μg/ml in TSB, initial 6×10^4 CFU/ml, after 4 hours of incubation time, FIG. 3B curve OR32) was “more than 10%”, the “inhibition of ORSA reproduction (conclusion from change rate of electric current)” value ([1]; oxacillin about 4 μg/ml in TSB, initial 6×10^4 CFU/ml, increasing incubation time) was “not inhibited by oxacillin” and the “difference between the change rates of electric current of the ORSA fluid sample and the OSSA control sample” value ([1]; oxacillin about 4 μg/ml, after more than 3 hours of incubation period, FIG. 3B) was no less than 4%. The “change in the change rate of electric current of the OSSA sample as incubation time increases” value ([2]; FIG. 3B curve OS32) was “no significant change” and the “inhibition of OSSA reproduction (conclusion from change rate of electric current)” value ([2]; increasing incubation time) was “inhibited by oxacillin and difficult to reproduce”.
